For one data set, the system named is esterase. Briefly: Esterase hydrolysis rates of TSD-8 and clopidogrel bisulfate, in vitro incubation in rat whole blood. On the set-up: sample test results (concentration) Num. 1 / sample test results (concentration) Num. 2 / sample test results (concentration) Num. 3 / sample test results (concentration) Mean: unit not given here. The format is in vitro ADME. The note with it: for sample test results (concentration) Mean / sample test results (concentration) Num. 1 / sample test results (concentration) Num. 2 / sample test results (concentration) Num. 3: rat whole blood, 37° C., 30 μg/mL.

Data set [1] relates to ADP induced platelet aggregation. Briefly: ADP induced platelet aggregation, maximum aggregation rate after administration to rats. The format is in vivo, Wistar male rats. Details: unit not given here. The note with it: 3 mg/kg. As for the experimental part:
Addition of small dose of ADP (concentration less than 0.9 μmol/L) into the platelet suspension could lead to rapid platelet aggregation, followed by quick disaggregation; if moderate dose of ADP (about 1.0 μmol/L) was added, then the second irreversible aggregation phase appeared not long after the end of the first aggregation phase and the disaggregation. The maximum aggregation rate of the irreversible aggregation phase was used to evaluate the effect of the test samples on the function of blood coagulation.
Animals: Wistar male rats, weighing 230-250 g, were purchased from Vital River Laboratory Animal Technology Co., Ltd.
Reagent: ADP, Sigma Corporation.
Test samples: 16 test samples were provided by the Tasly Group; referred to China patent application 201310428052.4 for manufacturing method of TSC-1˜4 and TSC-6˜9.
Dose of administration: the test samples were suspended with 0.25% CMC, administered 3 mg/kg weight, volume of administration: 2 mL.
2 Hours after administration, the rats were anesthetized with pentobarbital sodium, and blood was drawn from the abdominal aorta, anticoagulated with sodium citrate with a ratio of 1:9, and centrifuged to obtain the platelet-rich plasma and platelet-poor plasma, with the mixed ratio of the platelet-poor plasma to platelet-rich plasma=3:1.

The test system of data set [2] is Rat Arteriovenous Thrombus Loop Model. The note with it: SD rat, 1.0 mg/kg oral gavage, 2 h after administration, 15 min circulation. The source says: genus, strain: SD rat, • Provider: Slac • Weight: 250-350 g • Sex: male • Animal number: 30
Apparatus and Materials • Swab, dry tampon, alcohol pad, anerdian tampon. • Surgical scissor, ophthalmic forceps, hemostatic forceps, microsurgical scissor, microsurgical forceps, artery clamps. • 3-0 surgical suture, thick PE tube (I.D.*O.D.=1.14 mm*1.63 mm, 8 cm long), think PE tube (I.D.*O.D.=0.72 mm*1.22 mm, 6 cm long). • Surgical board, binding rope, timer, precise electronic balance, weighing paper. • Syringe, normal saline.
7. Experimental Method • After arrival, the animals were let adapt to the environment for 1 week and fasted for 16 hours prior to the test. • The arteriovenous blood loop circulation was started 2 h after oral administration of the test compounds and 4 h after oral administration of clopidogrel. • The rats were anesthetized with pentobarbital sodium (50 mg/kg, ip) 15 min before the arteriovenous blood loop circulation was started. • The left external jugular vein and the right carotid artery were separated and inserted with thin PE tubes respectively. • Two PE tubes were connected with another thick PE tube with a length of 8 cm to form a circulation passage. There's a 6 cm surgical suture (3-0) in the thick PE tube. • 15 min after the circulation passage was opened, the blood flow was blocked, the filament was taken out and weighed after the blood was sucked out. The thrombus weight was obtained after subtraction of the weight of the filament itself.

A further data set has as its system Rat Tail Bleeding Model. The note with it: SD rat, 1.0 mg/kg oral gavage, 2 h after administration. The protocol: genus, strain SD rat, • Provider: Slac • Weight: 250-350 g • Sex: male • Animal number: 30
Experimental Method: • The animals were allowed adapt to the environment after arrival for 1 week and fasted for 16 hours prior to the experiment. • The tail bleeding time started to be recorded 2 h after oral administration of the test compounds and 4 h after oral administration of clopidogrel. • The rats were anesthetized with pentobarbital sodium (50 mg/kg, ip) 10 min prior to the recording of the tail bleeding time, after the rat was completely anesthetized and reaching the detection time, the tail was cut at 1.3 mm from the rat tail-tip with a scissor and perpendicularly immerged into a saline at 37° C. Timing recording was not started until the blood flow appeared. • The timing recording was stopped when the bleeding time interval was longer than 20 seconds. The maximum observation time for the blood flow was set for 40 minutes. If it was longer than 40 minutes, the timing recording was stopped and the time was recorded as 40 minutes.

The mark [3] stands for this setting: ADP induced, rats, blood drawn 2 hours after administration.

SMILES strings stand for the structures. Marks after values point to notes of the source that are not given here.

Method for esterase: 3 mL of rat fresh whole blood was taken and placed in a glass test tube. […] The test tubes were shocked at a constant temperature of 37° C., 100 μL of the mixture was taken out at fixed time points of 10 min, 20 min, 30 min, 40 min, 50 min, 60 min, 70 min, 80 min, 90 min, 100 min, 110 min, and 120 min, 900 μL of methanol was added to stop the reaction immediately, then 100 μL methanol/water (1:1, v/v) and 100 μL internal standard (diazepam, 100 ng/mL) were added sequentially. The mixture was centrifuged at 13000 rpm at low temperature for 10 min, the supernatant was transferred into another EP tube, and 20 μL of the supernatant was taken for sample injection.

In the case of `[2H]C([2H])([2H])OC(=O)[C@H](c1ccccc1Cl)N1CCc2sc(OCOP(=O)(O)O)cc2C1` [TSD-8], in the data set on esterase (compared with clopidogrel, FIG. 1), the “hydrolysis rate in the rat whole blood” value is on record as “slower than that of clopidogrel”. Also, the “sample test results (concentration) Mean” value in the data set with esterase (10 min) is listed as 391.50; in the data set with esterase (20 min), 290.00; with esterase (30 min) it was 275.33; in the data set on esterase (40 min) it was 223.00; with esterase (50 min), 101.67; with esterase (60 min), 112.00. Further, the “sample test results (concentration) Mean” value in the data set with esterase (90 min) stood at 74.63; in the data set with esterase (100 min) it was 55.40; in the data set with esterase (110 min), 47.90; in the data set on esterase (120 min) it was 34.90. The “sample test results (concentration) Num. 1” value stood at 531 with esterase (10 min); 336 in the data set with esterase (20 min); 255 with esterase (30 min); 222 with esterase (40 min); 112 with esterase (50 min); 115 in the data set with esterase (60 min). The “sample test results (concentration) Num. 1” value in the data set with esterase (90 min) was 76.3; in the data set with esterase (100 min), 52.7; in the data set on esterase (110 min), 45.7; with esterase (120 min), 34.3. The “sample test results (concentration) Num. 2” value turned out to be 252 with esterase (10 min); 242 in the data set on esterase (20 min); 291 with esterase (30 min); 219 in the data set on esterase (40 min); 103 with esterase (50 min); 123 in the data set on esterase (60 min). Besides, the “sample test results (concentration) Num. 2” value is reported as 77.4 in the data set on esterase (90 min), 63.2 in the data set on esterase (100 min), 51.5 in the data set on esterase (110 min) and 38.7 with esterase (120 min). Further, the “sample test results (concentration) Num. 3” value with esterase (20 min) is 292; in the data set with esterase (30 min), 280; in the data set with esterase (40 min) it was 228; in the data set on esterase (50 min) it was 90; in the data set on esterase (60 min), 98; with esterase (90 min), 70.2. Further, the “sample test results (concentration) Num. 3” value stood at 50.3 in the data set with esterase (100 min), 46.5 with esterase (110 min) and 31.7 in the data set on esterase (120 min). Moreover, the “Maximum Platelet Aggregation Rate” value in data set [1] (setting [3]) was 16.3 ± 4.16.

Regarding `COC(=O)[C@H](c1ccccc1Cl)N1CCc2sc(OP(=O)(O)O)cc2C1` [TSC-6], the “Maximum Platelet Aggregation Rate” value in data set [1] (rat, in vivo) turned out to be 29.6 ± 5.33. Further, in data set [2], the “Thrombus (mg)” value is listed as 31.4* mg. For the same compound, the “Tail Bleeding Time” value in the data set with Rat Tail Bleeding Model was 635 s.

Regarding `CC(=O)Oc1cc2c(s1)CCN(C(C(=O)C1CC1)c1ccccc1F)C2` (stereo not shown) [prasugrel, reference compound], the “Maximum Platelet Aggregation Rate” value in data set [1] (setting [3]) is reported as 20.72 ± 8.84.

Take `[2H]C([2H])([2H])OC(=O)[C@H](c1ccccc1Cl)N1CCc2sc(OP(=O)(Oc3ccccc3)Oc3ccccc3)cc2C1` [TSD-4]: the “Maximum Platelet Aggregation Rate” value in data set [1] (setting [3]) was found to be 36.2 ± 4.16.

Turning to `[2H]C([2H])([2H])OC(=O)[C@H](c1ccccc1Cl)N1CCc2sc(OC(C)=O)cc2C1` [I-1], the “Thrombus” value in data set [2] was determined as 25.6 mg. The “Tail Bleeding Time” value with Rat Tail Bleeding Model amounted to 950 s.

Consider `[2H]C([2H])([2H])OC(=O)[C@H](c1ccccc1Cl)N1CCc2sc(OP(=O)(OC)OC)cc2C1` [TSD-1], for which the “Maximum Platelet Aggregation Rate” value in data set [1] (setting [3]) is recorded as 35.6 ± 3.35.

Take `[2H]C([2H])([2H])OC(=O)[C@H](c1ccccc1Cl)N1CCc2sc(OP(=O)(OC(C)C)OC(C)C)cc2C1` [TSD-3]: the “Maximum Platelet Aggregation Rate” value in data set [1] (setting [3]) turned out to be 28.4 ± 3.27.

With `[2H]C([2H])([2H])OC(=O)[C@H](c1ccccc1Cl)N1CCc2sc(OCOP(=O)(OC(C)(C)C)OC(C)(C)C)cc2C1` [TSD-7], the “Maximum Platelet Aggregation Rate” value in data set [1] (setting [3]) was determined as 27.1 ± 6.21.

In the case of `[2H]C([2H])([2H])OC(=O)[C@H](c1ccccc1Cl)N1CCc2sc(OP(=O)(OCC)OCC)cc2C1` [TSD-2], the “Maximum Platelet Aggregation Rate” value in data set [1] (setting [3]) was 32.7 ± 5.33.

Source of the values: patent publication US11130766B2, “Deuterated thienopiperidine derivatives, manufacturing method, and application thereof” (JIANGSU TASLY DIYI PHARMACEUTICAL CO., LTD., priority 2015, dated 2021).
